From patent US6465654B2, “Process for preparing 1-substituted, 2-substituted 1H-imidazo[4, 5-c]quinoline-4-amines” (3M Innovative Properties Company, priority 1991, dated 2002)

Experiments:
interferon-α = assay: Interferon-α induction in human cells, PBM; format: cell-based; conditions: 24 hours
interferon = assay: Interferon induction in mice; format: in vivo; conditions: mouse serum
Procedure: One hour later blood samples are withdrawn from the first group. The samples are pooled then centrifuged. The serum is removed from the centrifuge tube, split into two portions, then placed in freezing vials and maintained at −70° C. until analysis. This procedure is repeated at 2 hours with the second group of mice and at 4 hours with the third group of mice. Samples are assayed as described above in connection with the analysis of interferon induction in human cells. The results are expressed in the table below as α/β reference units/mL based on the value obtained for a mouse MU-1-IF standard. Results are shown in the table below wherein results designated as “<” a certain number indicate that interferon was not detectable in amounts above the lower sensitivity level of the assay.

Molecule	Interferon-α induction (interferon-α; dose concentration 0.01 μg/mL)	Interferon-α induction (interferon-α; dose concentration 0.05 μg/mL)	Interferon-α induction (interferon-α; dose concentration 0.10 μg/mL)	Interferon-α induction (interferon-α; dose concentration 0.50 μg/mL)	Interferon-α induction (interferon-α; dose concentration 1.0 μg/mL)	Interferon-α induction (interferon-α; dose concentration 5.0 μg/mL)	Interferon induction in mice (interferon; oral 0.3 mg/kg, 1 hr)	Interferon induction in mice (interferon; oral 0.3 mg/kg, 2 hr)	Interferon induction in mice (interferon; oral 0.3 mg/kg, 4 hr)	Interferon induction in mice (interferon; oral 1 mg/kg, 1 hr)	Interferon induction in mice (interferon; oral 1 mg/kg, 2 hr)	Interferon induction in mice (interferon; oral 1 mg/kg, 4 hr)	Interferon induction in mice (interferon; oral 3 mg/kg, 1 hr)	Interferon induction in mice (interferon; oral 3 mg/kg, 2 hr)	Interferon induction in mice (interferon; oral 3 mg/kg, 4 hr)	Interferon induction in mice (interferon; oral 10 mg/kg, 1 hr)	Interferon induction in mice (interferon; oral 10 mg/kg, 2 hr)	Interferon induction in mice (interferon; oral 10 mg/kg, 4 hr)
1-Butyl-2-methoxyethyl-1H-imidazo[4,5-c]quinolin-4-amine [Example 115]	91 α Reference Units/mL	96 α Reference Units/mL	120 α Reference Units/mL	190 α Reference Units/mL	190 α Reference Units/mL	240 α Reference Units/mL	˜380 Reference Units/mL	2500 Reference Units/mL	˜360 Reference Units/mL	1400 Reference Units/mL	2900 Reference Units/mL	˜310 Reference Units/mL	2200 Reference Units/mL	5300 Reference Units/mL	˜310 Reference Units/mL	5600 Reference Units/mL	5300 Reference Units/mL	870 Reference Units/mL
4-Amino-N-hydroxyethyl-N-methyl-1-phenylmethyl-1H-imidazo[4,5-c]quinoline-2-methanamine Hemihydrate [Example 30]			<4 α Reference Units/mL	<4 α Reference Units/mL	<4 α Reference Units/mL	72 α Reference Units/mL	<120 Reference Units/mL	<120 Reference Units/mL	<120 Reference Units/mL	<120 Reference Units/mL	<120 Reference Units/mL	<120 Reference Units/mL	<120 Reference Units/mL	<120 Reference Units/mL	<120 Reference Units/mL	<120 Reference Units/mL	600 Reference Units/mL	<120 Reference Units/mL
4-Amino-α-butyl-1-(2-methylpropyl)-1H-imidazo[4,5-c]quinoline-2-methanol Hemihydrate [Example 60]			1700 α Reference Units/mL	430 α Reference Units/mL	570 α Reference Units/mL	570 α Reference Units/mL	120 Reference Units/mL	870 Reference Units/mL	≦56 Reference Units/mL	290 Reference Units/mL	1500 Reference Units/mL	120 Reference Units/mL	380 Reference Units/mL	870 Reference Units/mL	290 Reference Units/mL	870 Reference Units/mL	3400 Reference Units/mL	1100 Reference Units/mL
Nc1nc2ccccc2c2c1nc(CN1CCOCC1)n2Cc1ccccc1 [Example 29, 2-Morpholinomethyl-1-phenylmethyl-1H-imidazo-[4,5-c]quinolin-4-amine]			<5.4 α Reference Units/mL	440 α Reference Units/mL	1000 α Reference Units/mL	580 α Reference Units/mL	<45 Reference Units/mL	<45 Reference Units/mL	<45 Reference Units/mL	<45 Reference Units/mL	<45 Reference Units/mL	<45 Reference Units/mL	<45 Reference Units/mL	<45 Reference Units/mL	<45 Reference Units/mL	<45 Reference Units/mL	<45 Reference Units/mL	<45 Reference Units/mL
CC(C)Cn1c(C(O)c2ccc(Cl)cc2)nc2c(N)nc3ccccc3c21 (stereo not drawn) [Example 55, 4-Amino-α-(4-chlorophenyl)-1-(2-methylpropyl)-1H-imidazo[4,5-c]quinoline-2-methanol]			<4 α Reference Units/mL	1500 α Reference Units/mL	1500 α Reference Units/mL	490 α Reference Units/mL												
CCCCC(c1nc2c(N)nc3ccccc3c2n1CC(C)C)N1CCOCC1 (centres unmarked) [Example 62, 2-[1-(1-Morpholino)pentyl]1-1-(2-methylpropyl)-1H-imidazo[4,5-c]quinolin-4-amine]			<5 α Reference Units/mL	<5 α Reference Units/mL	31 α Reference Units/mL	760 α Reference Units/mL	<56 Reference Units/mL	<56 Reference Units/mL	<56 Reference Units/mL	<56 Reference Units/mL	97 Reference Units/mL	<56 Reference Units/mL	220 Reference Units/mL	870 Reference Units/mL	160 Reference Units/mL	380 Reference Units/mL	1100 Reference Units/mL	380 Reference Units/mL
CC(=O)OC(C)c1nc2c(N)nc3ccccc3c2n1CC(C)C.O (stereo not drawn) [Example 69, 4-Amino-α-methyl-1-(2-methylpropyl)-1H-imidazo[4,5-c]quinoline-2-methyl Acetate Hydrate]	<6.4 α Reference Units/mL	<6.4 α Reference Units/mL	1000 α Reference Units/mL	680 α Reference Units/mL	390 α Reference Units/mL	900 α Reference Units/mL	<150 Reference Units/mL	<150 Reference Units/mL	<150 Reference Units/mL	<150 Reference Units/mL	<150 Reference Units/mL	<150 Reference Units/mL	≦270 Reference Units/mL	≦150 Reference Units/mL	<150 Reference Units/mL	1000 Reference Units/mL	1000 Reference Units/mL	≦340 Reference Units/mL
COCc1nc2c(N)nc3ccccc3c2n1Cc1ccccc1 [Example 104, 2-Methoxymethyl-1-phenylmethyl-1H-imidazo[4,5-c]quinolin-4-amine]	<2.7 α Reference Units/mL	<2.7 α Reference Units/mL	310 α Reference Units/mL	180 α Reference Units/mL	140 α Reference Units/mL	310 α Reference Units/mL	<380 Reference Units/mL	<380 Reference Units/mL	<380 Reference Units/mL	˜780 Reference Units/mL	˜780 Reference Units/mL	˜380 Reference Units/mL	≦660 Reference Units/mL	2200 Reference Units/mL	<380 Reference Units/mL	3400 Reference Units/mL	4500 Reference Units/mL	≦660 Reference Units/mL
CCOCc1nc2c(N)nc3ccccc3c2n1CCC(C)C.Cl [Example 109, 2-Ethoxymethyl-1-(3-methylbutyl)-1H-imidazo[4,5-c]quinolin-4-amine Hydrochloride]	<1.4 α Reference Units/mL	1000 α Reference Units/mL	1000 α Reference Units/mL	97 α Reference Units/mL	83 α Reference Units/mL	78 α Reference Units/mL												
COCc1nc2c(N)nc3ccccc3c2n1CC(C)(C)O [Example 111, 4-Amino-α,α-dimethyl-2-methoxymethyl-1H-imidazo[4,5-c]quinoline-1-ethanol]	190 α Reference Units/mL	65 α Reference Units/mL	65 α Reference Units/mL	49 α Reference Units/mL	55 α Reference Units/mL	61 α Reference Units/mL												
